Test results reported in ChEMBL document CHEMBL1201862, “PubChem BioAssay data set” (2004).
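48-hour exposure; five concentrations; linearly interpolated endpoints. GI50: concentration for 50% inhibition of growth.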 Active and inactive are the calls of the source. No stated cut-off is given here; in the data, active = GI50 up to about 1.1 µM and inactive = higher.

Legend:
Assay in all cases: inhibition of tumour cell growth, NCI panel, 48 h
ACHN = tested on: ACHN
CAKI-1 = tested on: CAKI-1
CCRF-CEM = tested on: CCRF-CEM
EKVX = tested on: EKVX
HCT-15 = tested on: HCT-15
HOP-92 = tested on: HOP-92
Hs-578T = tested on: Hs-578T
IGROV-1 = tested on: IGROV-1
KM12 = tested on: KM12
NCI-H23 = tested on: NCI-H23
NCI-H522 = tested on: NCI-H522
PC-3 = tested on: PC-3
RPMI-8226 = tested on: RPMI-8226
SF-268 = tested on: SF-268
SK-MEL-28 = tested on: SK-MEL-28
SNB-75 = tested on: SNB-75
SW-620 = tested on: SW-620
UACC-257 = tested on: UACC-257
UACC-62 = tested on: UACC-62
HCC 2998 = tested on: HCC 2998

SMILES | GI50 (ACHN) | GI50 (CAKI-1) | GI50 (CCRF-CEM) | GI50 (EKVX) | GI50 (HCT-15) [µM] | GI50 (HOP-92) | GI50 (Hs-578T) | GI50 (IGROV-1) | GI50 (KM12) | GI50 (NCI-H23) | GI50 (NCI-H522) | GI50 (PC-3) | GI50 (RPMI-8226) | GI50 (SF-268) | GI50 (SK-MEL-28) | GI50 (SNB-75) | GI50 (SW-620) | GI50 (UACC-257) | GI50 (UACC-62) | GI50 (HCC 2998)
COc1cc2c(cc1OC)CC(=O)c1cc(OC)c(OC)cc1/C=C\2 | > 12.5 µM (inactive) | > 12.5 µM (inactive) | > 12.5 µM (inactive) | > 12.5 µM (inactive) | 5.85 | > 12.5 µM (inactive) | > 12.5 µM (inactive) | 10.8 µM (inactive) | 4.55 µM (inactive) | > 12.5 µM (inactive) | 9.44 µM (inactive) | > 12.5 µM (inactive) | > 12.5 µM (inactive) | > 12.5 µM (inactive) | > 12.5 µM (inactive) | 4.83 µM (inactive) | 6.37 µM (inactive) | > 12.5 µM (inactive) | > 12.5 µM (inactive) | –
O=[N+]([O-])c1ccc(Cl)c(CNc2ncnc3c2ncn3C2CCCCO2)c1 (stereo unspecified) | 44.9 µM (inactive) | > 100 µM (inactive) | – | 77.1 µM (inactive) | 33.9 | 42.3 µM (inactive) | > 100 µM (inactive) | 58.2 µM (inactive) | 66.7 µM (inactive) | 31.8 µM (inactive) | 32.8 µM (inactive) | 39.3 µM (inactive) | 38.6 µM (inactive) | 97.9 µM (inactive) | 89.5 µM (inactive) | 43.6 µM (inactive) | 35 µM (inactive) | – | 22.8 µM (inactive) | –
CC(=O)/N=C1/N(/C=C2\C(=O)Oc3ccccc3C2=O)C(=O)/C(=C/c2ccccc2Cl)N1C | > 100 µM (inactive) | > 100 µM (inactive) | > 100 µM (inactive) | 84.9 µM (inactive) | 52.6 | – | 4.29 µM (inactive) | > 100 µM (inactive) | > 100 µM (inactive) | > 100 µM (inactive) | > 100 µM (inactive) | > 100 µM (inactive) | > 100 µM (inactive) | 73.8 µM (inactive) | > 100 µM (inactive) | 22.2 µM (inactive) | > 100 µM (inactive) | > 100 µM (inactive) | > 100 µM (inactive) | > 100 µM (inactive)
O=c1cc(NCC2CCCCC2)[nH]c(=O)[nH]1 | > 100 µM (inactive) | – | > 100 µM (inactive) | > 100 µM (inactive) | > 100 | 95.1 µM (inactive) | > 100 µM (inactive) | > 100 µM (inactive) | > 100 µM (inactive) | > 100 µM (inactive) | – | > 100 µM (inactive) | > 100 µM (inactive) | > 100 µM (inactive) | > 100 µM (inactive) | > 100 µM (inactive) | > 100 µM (inactive) | > 100 µM (inactive) | – | > 100 µM (inactive)
O=C1/C(=C/c2ccco2)N=C2Sc3c([nH]cnc3=O)N12 | > 100 µM (inactive) | > 100 µM (inactive) | > 100 µM (inactive) | > 100 µM (inactive) | > 100 | > 100 µM (inactive) | > 100 µM (inactive) | > 100 µM (inactive) | > 100 µM (inactive) | > 100 µM (inactive) | > 100 µM (inactive) | > 100 µM (inactive) | > 100 µM (inactive) | > 100 µM (inactive) | > 100 µM (inactive) | > 100 µM (inactive) | > 100 µM (inactive) | > 100 µM (inactive) | – | –
c1ccc2c(c1)ccc1nc3ccccn3c12 | > 100 µM (inactive) | – | > 100 µM (inactive) | 68.5 µM (inactive) | > 100 | > 100 µM (inactive) | 15.3 µM (inactive) | > 100 µM (inactive) | > 100 µM (inactive) | > 100 µM (inactive) | – | > 100 µM (inactive) | > 100 µM (inactive) | > 100 µM (inactive) | > 100 µM (inactive) | > 100 µM (inactive) | > 100 µM (inactive) | > 100 µM (inactive) | > 100 µM (inactive) | > 100 µM (inactive)
Cc1cccc(CC(Cc2c(C)cccc2C(=O)O)C(=O)O)c1 (stereo unspecified) | > 100 µM (inactive) | > 100 µM (inactive) | > 100 µM (inactive) | > 100 µM (inactive) | 31.3 | – | > 100 µM (inactive) | > 100 µM (inactive) | > 100 µM (inactive) | > 100 µM (inactive) | > 100 µM (inactive) | > 100 µM (inactive) | > 100 µM (inactive) | > 100 µM (inactive) | > 100 µM (inactive) | > 100 µM (inactive) | > 100 µM (inactive) | > 100 µM (inactive) | 0.0875 µM (active) | 67.6 µM (inactive)
C1CCC(CC2CCC(NC3=NCCO3)CC2)CC1 (stereo unspecified) | 19.5 µM (inactive) | 24.5 µM (inactive) | 26.1 µM (inactive) | 22.1 µM (inactive) | 12.3 | – | 16.3 µM (inactive) | 19.7 µM (inactive) | 18.3 µM (inactive) | 17.9 µM (inactive) | 22.2 µM (inactive) | 15.8 µM (inactive) | 26.1 µM (inactive) | 26 µM (inactive) | 18.1 µM (inactive) | 18.2 µM (inactive) | 21.3 µM (inactive) | 16.4 µM (inactive) | 17.3 µM (inactive) | 20.7 µM (inactive)
